Tested on: NCI-H23 complex spheroids with HUVEC/MSC, viability
Assay: Anticancer human tumor NCI-H23 cell line growth inhibition [RAS];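 further: spheroids exposed to compound for 7 days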;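 on viability, T/C: 100% = DMSO vehicle control viability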
Details: for IC50: curve of first compound; for viability, T/C: stronger effect = lower value
Procedure, shortened: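 Agents were tested in combination matrices in half-log decrements from a top concentration at or near clinical Cmax (10 microM if undetermined). Targets were multi-cell spheroids of tumour lines plus HUVEC and MSC stromal cells.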

`CC(=O)OC12COC1CC(O)C1(C)C(=O)C(O)C3=C(C)C(OC(=O)C(O)C(NC(=O)OC(C)(C)C)c4ccccc4)CC(O)(C(OC(=O)c4ccccc4)C21)C3(C)C` (centres undefined) + CCn1c(-c2cc(N3CCN(C)CC3)cnc2C(C)OC)c2c3cc(ccc31)-c1csc(n1)CC(NC(=O)C1CC1C)C(=O)N1CCCC(N1)C(=O)OCC(C)(C)C2 showed an IC50 (second compound 0.000949 µM) of less than 31.6 nM, an IC50 (second compound 0.003 µM) of less than 31.6 nM and an IC50 (second compound 0.00949 µM) of less than 31.6 nM. For the same compound, the IC50 (second compound 0.03 µM) was less than 31.6 nM, the IC50 (second compound 0.0949 µM) was less than 31.6 nM and the IC50 (second compound 0.3 µM) was less than 31.6 nM. It also gave a viability, T/C (second compound 0.000949 µM, first compound 0.0316 µM) of 13.9%, a viability, T/C (second compound 0.000949 µM, first compound 0.1 µM) of 16.1% and a viability, T/C (second compound 0.000949 µM, first compound 0.316 µM) of 14.7%. The viability, T/C (second compound 0.000949 µM, first compound 1 µM) was 15.5%, the viability, T/C (second compound 0.000949 µM, first compound 3.16 µM) was 21.5% and the viability, T/C (second compound 0.000949 µM, first compound 10 µM) was 25.5%. For the same compound, the viability, T/C (second compound 0.003 µM, first compound 0.0316 µM) was 11.9%, the viability, T/C (second compound 0.003 µM, first compound 0.1 µM) was 12.4% and the viability, T/C (second compound 0.003 µM, first compound 0.316 µM) was 11.6%. For the same compound, the viability, T/C (second compound 0.003 µM, first compound 1 µM) was 12.1%, the viability, T/C (second compound 0.003 µM, first compound 3.16 µM) was 17.1% and the viability, T/C (second compound 0.003 µM, first compound 10 µM) was 19.4%. The viability, T/C (second compound 0.00949 µM, first compound 0.0316 µM) was 12.5%, the viability, T/C (second compound 0.00949 µM, first compound 0.1 µM) was 10.9% and the viability, T/C (second compound 0.00949 µM, first compound 0.316 µM) was 11.6%. It also gave a viability, T/C (second compound 0.00949 µM, first compound 1 µM) of 13.9%, a viability, T/C (second compound 0.00949 µM, first compound 3.16 µM) of 15.8% and a viability, T/C (second compound 0.00949 µM, first compound 10 µM) of 17.3%. It also gave a viability, T/C (second compound 0.03 µM, first compound 0.0316 µM) of 11.4%, a viability, T/C (second compound 0.03 µM, first compound 0.1 µM) of 11.7% and a viability, T/C (second compound 0.03 µM, first compound 0.316 µM) of 12%. The viability, T/C (second compound 0.03 µM, first compound 1 µM) was 12.5%, the viability, T/C (second compound 0.03 µM, first compound 3.16 µM) was 16.4% and the viability, T/C (second compound 0.03 µM, first compound 10 µM) was 19.9%. The viability, T/C (second compound 0.0949 µM, first compound 0.0316 µM) was 10.7%, the viability, T/C (second compound 0.0949 µM, first compound 0.1 µM) was 10.6% and the viability, T/C (second compound 0.0949 µM, first compound 0.316 µM) was 10.4%. For the same compound, the viability, T/C (second compound 0.0949 µM, first compound 1 µM) was 10.9%, the viability, T/C (second compound 0.0949 µM, first compound 3.16 µM) was 12.4% and the viability, T/C (second compound 0.0949 µM, first compound 10 µM) was 14.9%. The viability, T/C (second compound 0.3 µM, first compound 0.0316 µM) was 10.1%, the viability, T/C (second compound 0.3 µM, first compound 0.1 µM) was 8.97% and the viability, T/C (second compound 0.3 µM, first compound 0.316 µM) was 10.4%. For the same compound, the viability, T/C (second compound 0.3 µM, first compound 1 µM) was 8.98%, the viability, T/C (second compound 0.3 µM, first compound 3.16 µM) was 12.6% and the viability, T/C (second compound 0.3 µM, first compound 10 µM) was 14.2%.
Compound `CCc1c2c(nc3ccc(O)cc13)-c1cc3c(c(=O)n1C2)COC(=O)[C@]3(O)CC` + CCn1c(-c2cc(N3CCN(C)CC3)cnc2C(C)OC)c2c3cc(ccc31)-c1csc(n1)CC(NC(=O)C1CC1C)C(=O)N1CCCC(N1)C(=O)OCC(C)(C)C2 has an IC50 (second compound 0.000949 µM) of less than 0.949 nM, an IC50 (second compound 0.003 µM) of less than 0.949 nM and an IC50 (second compound 0.00949 µM) of less than 0.949 nM. The IC50 (second compound 0.03 µM) was less than 0.949 nM, the IC50 (second compound 0.0949 µM) was less than 0.949 nM and the IC50 (second compound 0.3 µM) was less than 0.949 nM. The viability, T/C (second compound 0.000949 µM, first compound 0.000949 µM) was 40.7%, the viability, T/C (second compound 0.000949 µM, first compound 0.003 µM) was 21% and the viability, T/C (second compound 0.000949 µM, first compound 0.00949 µM) was 4.92%. The viability, T/C (second compound 0.000949 µM, first compound 0.03 µM) was 2.52%, the viability, T/C (second compound 0.000949 µM, first compound 0.0949 µM) was 1.86% and the viability, T/C (second compound 0.000949 µM, first compound 0.3 µM) was 0.88%. It also gave a viability, T/C (second compound 0.003 µM, first compound 0.000949 µM) of 32.5%, a viability, T/C (second compound 0.003 µM, first compound 0.003 µM) of 13.4% and a viability, T/C (second compound 0.003 µM, first compound 0.00949 µM) of 4.98%. The viability, T/C (second compound 0.003 µM, first compound 0.03 µM) was 1.97%, the viability, T/C (second compound 0.003 µM, first compound 0.0949 µM) was 1.43% and the viability, T/C (second compound 0.003 µM, first compound 0.3 µM) was 1.2%. It also gave a viability, T/C (second compound 0.00949 µM, first compound 0.000949 µM) of 26.2%, a viability, T/C (second compound 0.00949 µM, first compound 0.003 µM) of 11.2% and a viability, T/C (second compound 0.00949 µM, first compound 0.00949 µM) of 5.03%. For the same compound, the viability, T/C (second compound 0.00949 µM, first compound 0.03 µM) was 1.84%, the viability, T/C (second compound 0.00949 µM, first compound 0.0949 µM) was 1.75% and the viability, T/C (second compound 0.00949 µM, first compound 0.3 µM) was 1.2%. The viability, T/C (second compound 0.03 µM, first compound 0.000949 µM) was 20.6%, the viability, T/C (second compound 0.03 µM, first compound 0.003 µM) was 11.9% and the viability, T/C (second compound 0.03 µM, first compound 0.00949 µM) was 5.17%. It also gave a viability, T/C (second compound 0.03 µM, first compound 0.03 µM) of 2.36%, a viability, T/C (second compound 0.03 µM, first compound 0.0949 µM) of 1.52% and a viability, T/C (second compound 0.03 µM, first compound 0.3 µM) of 1.97%. For the same compound, the viability, T/C (second compound 0.0949 µM, first compound 0.000949 µM) was 16%, the viability, T/C (second compound 0.0949 µM, first compound 0.003 µM) was 10.9% and the viability, T/C (second compound 0.0949 µM, first compound 0.00949 µM) was 4.9%. The viability, T/C (second compound 0.0949 µM, first compound 0.03 µM) was 3.03%, the viability, T/C (second compound 0.0949 µM, first compound 0.0949 µM) was 1.77% and the viability, T/C (second compound 0.0949 µM, first compound 0.3 µM) was 2.09%. The viability, T/C (second compound 0.3 µM, first compound 0.000949 µM) was 15.7%, the viability, T/C (second compound 0.3 µM, first compound 0.003 µM) was 10.6% and the viability, T/C (second compound 0.3 µM, first compound 0.00949 µM) was 4.9%. The viability, T/C (second compound 0.3 µM, first compound 0.03 µM) was 2.44%, the viability, T/C (second compound 0.3 µM, first compound 0.0949 µM) was 2.32% and the viability, T/C (second compound 0.3 µM, first compound 0.3 µM) was 2.38%.

From PubChem BioAssay AID2060885 (Molecular Pharmacology Branch, DTP, NCI, 2025)
